Results from article PMC8997848, “How Cargo Identity Alters the Uptake of Cell-Penetrating Peptide (CPP)/Cargo Complexes: A Study on the Effect of Net Cargo Charge and Length” (Cells, 2022).

How the values were obtained:
HeLa cells [1] = assay: Live-cell fluorescent microscopy with line scans of intracellular peptide distribution; type: cell-based; conditions: for cellular uptake seen by fluorescence microscopy / intracellular distribution of fluorescence: 10 μM peptide, 60 min, 37 °C; for cellular uptake seen by fluorescence microscopy: FITC filter (Figure 3); for intracellular distribution of fluorescence: images and line scans across individual cells (Figures 3, 4, S8)
Method: One day prior to the experiment, HeLa cells were seeded in 8-chambered Falcon Culture Slides (Corning) at a density of 3 × 10^4 cells/mL. On the day of the experiment, cells were washed once with ECB before incubation with 10 μM peptide solution (500 μL/well) for 1 h at 37 °C. Following incubation, cells were washed twice with ECB then incubated with 8 μM Hoechst 3342 nuclei acid stain (ThermoFisher Scientific, Carlsbad, CA, USA) for 20 min at room temperature. Cellular fluorescence was visualized using a Leica DMi8 inverted microscope outfitted with a 40× objective (Leica N PLAN L, 0.55× correction). Images were acquired using the digital CMOS camera C11440 (Hamamatsu Photonics K.K., Japan) with a fixed exposure time of 500 ms for the FITC filter, 150 ms for the DAPI filter, and 20 ms for brightfield. The following excitation/emission filters (Chroma Tech. Corp, Bellows Falls, VT, USA) were used to image the device: fluorescein isothiocyanate-FITC (λex 440–520 nm and λem 497–557 nm) for capturing the signal from FAM and DAPI (λex 335–385 nm and λem 405–465 nm) for capturing the signal from the Hoescht stain. Image acquisition was controlled using the Leica Application Suite software (LAS X, version 3.7.4.23463), where all images were recorded using the same parameters. The imaging was followed by quantitative analysis, where a manual line scan region of interest (ROI) was drawn across the center of the cells to quantify their fluorescent signals. Random ROIs were also drawn in free space not containing cells to measure background noise for each image. The fluorescent values were normalized by subtracting the noise from the measured signal.

HeLa cells [2] = assay: Quantification of CPP and CPP/cargo uptake by fluorometry of FAM signal in cell lysate; type: cell-based; conditions: for time dependence of uptake (single factor ANOVA): 10 µM peptide, 10, 20, 40, 60, 100, 120 min, triplicate (Tables S1, S6); for time-dependent analysis of peptide uptake (in words): 10-120 min, triplicate (Figures S5, S7); for effect of net cargo length and arginine position on cellular uptake (one-way ANOVA) / uptake of CPP/cargo complex compared to the H1 CPP alone (in words): 10 µM; for effect of net cargo length and arginine position on cellular uptake (one-way ANOVA): 1 h, cargoes of +2 charge, 4 or 8 residues, triplicate (Figure 1B, Table S3); for uptake of CPP/cargo complex compared to the H1 CPP alone (in words): uptake normalized against H1, triplicate (Figure 1A)
Method: The quantification of peptide uptake was performed using a protocol previously utilized by Safa et al. and Vaithiyanathan et al.. Three days prior to the experiment, HeLa cells were seeded at a density of 1 × 10^4 cells/mL in 12 well plates. Prior to experiments, peptides were reconstituted in sodium phosphate buffer (2.26 mM NaH2PO4·H2O and 8.43 mM Na2HPO4·7H2O) and the peptide concentration was determined using a NanoDrop at the wavelength of 492 nm using the UV-vis function. On the day of the experiment, peptides were diluted to the desired final concentration with extracellular buffer, ECB (5.036 mM HEPES pH 7.4, 136.89 mM NaCl, 2.68 mM KCl, 2.066 mM MgCl2·6H2O, 1.8 mM, CaCl2·2H2O, and 5.55 mM glucose). Cells were washed once with PBS followed by peptide incubation (500 μL/well) at 37 °C. Plates were wrapped in aluminum foil during incubation to avoid deactivating the FAM tag on the peptide. Following the incubation, the peptide solutions were removed, and cells were washed twice with ECB. Cells were then trypsinized (250 μL/well) for 10 min at room temperature. The cells were resuspended in ECB (1 mL/well) and transferred to microcentrifuge tubes. The samples were centrifuged at 1800 rcf for 2.5 min. The supernatant was removed, and the isolated cells were lysed with 0.1 M NaOH (250 μL/tube). Samples were centrifuged again at 14,000 rcf for 5 min to remove any remaining protein bound to the membranes before transferring 150 μL of clarified lysate to a 96 well plate. Fluorometry (Perkin Elmer (Waltham, MA, USA) Wallac 1420 VICTOR2 multilabel HTS counter) was used to quantify the signal resulting from the FAM tag using an excitation filter of 490 nm and an emission filter of 535 nm. For each experiment, a no peptide control (cells incubated with ECB only) was performed. To measure the background signal of each peptide, the peptide solutions used in each experiment were analyzed by fluorometry to normalize the fluorescent signal for each sample. Signals were normalized using Equation (1):Normalized Fluorescence = 1000 × (F − C)/(P − B)(1) where F denotes the fluorescent signal of cells incubated with peptide, C denotes the fluorescent signal of cells incubated with no peptide, P denotes the average fluorescent signal of the peptide in suspension, and B denotes the average fluorescent signal of the ECB. Reported data for each experiment is the average of triplicate samples. Statistical analysis was carried out using JMP Pro 16 software (SAS Institute).

HeLa cells [3] = assay: alamarBlue cell viability assay; type: cell-based; conditions: 37 °C, 4 h (2 h in method and Figure 2), then alamarBlue 4 h, normalized to no peptide control, triplicate; for effect on cellular viability at 5 µM: HeLa cells, 5 µM peptide; for decrease in cellular viability: HeLa cells, 10, 20, and 30 μM peptide
Method: Two days prior to the experiment, HeLa cells were plated at a density of 1 × 10^5 cells/well in a 96 well plate. Cells were washed once with PBS and incubated with peptide solutions for 2 h at 37 °C. Following this incubation period, cells were washed with ECB and incubated with a mixture of 10 μL alamarBlue Viability Reagent (ThermoFisher Scientific, Carlsbad, CA, USA) in 90 μL serum-free media for 4 h at 37 °C. The fluorescent signal of alamarBlue was measured using fluorometry with an excitation filter of 532 nm and an emission filter of […]. A no peptide control was also performed to normalize the fluorescent signals. Signals were normalized using Equation (2):Normalized Cell Viability = F/C(2) where F denotes the fluorescent signal of cells incubated with peptide and C denotes the fluorescent signal of cells incubated with no peptide. The reported data are the average of triplicate samples.

[4] = cited from earlier work
Description: With the majority of well characterized CPPs being unstructured, and considering the differences in uptake levels, cytotoxicity, and intracellular stability that has been observed when comparing unstructured and structured CPPs, it was important to compare the effects of net cargo charge and length on both unstructured (nona-arginine, R1) and structured (RWRWR, H1) CPPs. To examine the ...

HeLa cells [5] = conditions: cited from earlier work
Description: In addition to improving the permeability and stability of the CPPs themselves, there is significant interest in utilizing known CPPs to deliver bioactive cargoes, such as nanoparticles, therapeutics, or biosensors, to cells. CPPs have found great success of late as delivery vehicles for peptide-based therapeutics, such as PROTACs (proteolysis targeting chimeras), which facilitate the degradation of “undruggable” proteins by selectively ubiquitinating the target protein for proteasome-mediated degradation. […] With the majority of well characterized CPPs being unstructured, and considering the differences in uptake levels, cytotoxicity, and intracellular stability that has been observed when comparing unstructured and structured CPPs, it was important to compare the effects of net cargo charge and length on both unstructured (nona-arginine, R1) and structured (RWRWR, H1) CPPs. To examine the ...

[6] = 10 µM peptide, FAM fluorometry of lysate
[7] = 10 µM peptide, 60 min, 37 °C, FAM fluorometry of lysate, triplicate (Figure 5)

## RWVRVpGO(FAM)WIRQ-GRGRGRGR [H5, H1 CPP with 8-residue cargo, net charge +4]
HeLa cells [1]
  cellular uptake seen by fluorescence microscopy: successful cellular uptake
  intracellular distribution of fluorescence: punctate regions of increased fluorescence
HeLa cells [1]; 10 μM, average fluorescence intensity in individual cells (Figure S6)
  cell-to-cell heterogeneity of uptake compared to cells incubated with H1: substantially higher heterogeneity
HeLa cells [1]; 10 μM, line scans across 20 single cells, normalized against background (Figure S6)
  average uptake from single-cell fluorescence intensity compared to H1: substantially higher average uptake
HeLa cells [2]; 10 µM peptide in ECB, 60 min, 37 °C, trypsinized, lysed in 0.1 M NaOH, FAM fluorometry ex 490/em 535 nm, average of triplicate, compared to H2
  increase in CPP/cargo uptake on increasing arginine residues from 2 (H2) to 4 (H5): 58%
HeLa cells [2]
  time dependence of uptake (single factor ANOVA): demonstrate time dependence
HeLa cells [2]; [6]
  time-dependent analysis of peptide uptake (in words): greatest penetration
HeLa cells [3]
  effect on cellular viability at 5 µM: did not result in a decrease in cellular viability
  decrease in cellular viability: ~ 5%

## RWVRVpGO(FAM)WIRQ-GGGGGRGR [H8, H1 CPP with 8-residue +2 cargo, arginines closer to the C-terminus]
HeLa cells [2]
  effect of net cargo length and arginine position on cellular uptake (one-way ANOVA): no significant difference in cellular uptake

## RWVRVpGO(FAM)WIRQ-GRGRGGGG [H9, H1 CPP with 8-residue +2 cargo, arginines closer to the N-terminus]
HeLa cells [2]
  effect of net cargo length and arginine position on cellular uptake (one-way ANOVA): no significant difference in cellular uptake

## RWVRVpGO(FAM)WIRQ-GGGG [H3, H1 CPP with 4-residue cargo GGGG, net charge 0]
HeLa cells [2]
  time dependence of uptake (single factor ANOVA): no time dependence
HeLa cells [2]; 60 min, 37 °C
  uptake of CPP/cargo complex compared to the H1 CPP alone (in words): diminished uptake

## RWVRVpGO(FAM)WIRQ-GRGR [H2, H1 CPP with 4-residue cargo GRGR, net charge +2]
HeLa cells [2]
  time dependence of uptake (single factor ANOVA): demonstrate time dependence
  effect of net cargo length and arginine position on cellular uptake (one-way ANOVA): no significant difference in cellular uptake
HeLa cells [2]; [6]
  time-dependent analysis of peptide uptake (in words): greatest penetration
HeLa cells [3]
  effect on cellular viability at 5 µM: did not result in a decrease in cellular viability
  decrease in cellular viability: ~ 5%

## RWVRVpGO(FAM)WIRQ-GGGGGGGG [H6, H1 CPP with 8-residue cargo, net charge 0]
HeLa cells [2]
  time dependence of uptake (single factor ANOVA): demonstrate time dependence
HeLa cells [2]; 60 min, 37 °C
  uptake of CPP/cargo complex compared to the H1 CPP alone (in words): diminished uptake

## RWVRVpGO(FAM)WIRQ-GEGE [H4, H1 CPP with 4-residue cargo GEGE, net charge −2]
HeLa cells [2]
  time dependence of uptake (single factor ANOVA): demonstrate time dependence
HeLa cells [2]; 60 min, 37 °C
  uptake of CPP/cargo complex compared to the H1 CPP alone (in words): diminished uptake

## RWVRVpGO(FAM)WIRQ-GEGEGEGE [H7, H1 CPP with 8-residue cargo, net charge −4]
HeLa cells [1]
  cellular uptake seen by fluorescence microscopy: impermeability
HeLa cells [2]
  time dependence of uptake (single factor ANOVA): no time dependence
HeLa cells [2]; 60 min, 37 °C
  uptake of CPP/cargo complex compared to the H1 CPP alone (in words): diminished uptake

## RWVRVpGO(FAM)WIRQ [H1, RWRWR β-hairpin CPP, FAM on ornithine side chain]
[4]
  increased intracellular stability compared to nona-arginine CPP: 20 fold
HeLa cells [1]
  cellular uptake seen by fluorescence microscopy: successful cellular uptake
  intracellular distribution of fluorescence: evenly distributed throughout the cell
HeLa cells [5]; HeLa cells
  time needed for uptake / sufficient internalization: < 10 min
HeLa cells [2]
  time dependence of uptake (single factor ANOVA): demonstrate time dependence
HeLa cells [2]; [6]
  time-dependent analysis of peptide uptake (in words): greatest penetration
HeLa cells [3]
  effect on cellular viability at 5 µM: did not result in a decrease in cellular viability
  decrease in cellular viability: ~ 5%

## FAM-RRRRRRRRR-GRGRGRGR [R3, nona-arginine CPP with 8-residue cargo, net charge +4]
HeLa cells [2]
  time dependence of uptake (single factor ANOVA): time-dependent
HeLa cells [2]; [6]
  time-dependent analysis of peptide uptake (in words): greater uptake that the R1 CPP
HeLa cells [2]; [7]
  increase in uptake compared to counterpart with H1 CPP (H2 and H5, respectively): 140%
  increase in uptake compared to the R1 CPP: 103%

## FAM-RRRRRRRRR-GRGR [R2, nona-arginine CPP with 4-residue cargo GRGR, net charge +2]
HeLa cells [2]
  time dependence of uptake (single factor ANOVA): time-dependent
HeLa cells [2]; [6]
  time-dependent analysis of peptide uptake (in words): greater uptake that the R1 CPP
HeLa cells [2]; [7]
  increase in uptake compared to counterpart with H1 CPP (H2 and H5, respectively): 140%
  increase in uptake compared to the R1 CPP: 29%

## FAM-RRRRRRRRR [R1, unstructured nona-arginine CPP, FAM labelled; commercial peptide ARG from AnaSpec, reference compound]
HeLa cells [1]
  intracellular distribution of fluorescence: punctate regions
HeLa cells [5]
  uptake efficiency compared to the RWRWR (H1) CPP: 2 fold

## FAM-RRRRRRRRR-GGGGGGGG [R4, nona-arginine CPP with 8-residue neutral cargo]
HeLa cells [2]; [7]
  decrease in cellular internalization compared to R1 CPP: 50%
